Laboratory results: PubChem BioAssay AID330 (DTP/NCI, 2004)
“And” between values parts separate entries of the source, which are not always exact repeats. Equal values may be shown once. Inconclusive results and toxic doses are left out. How the source made its calls: active means survival T/C of 150% or more; inactive means T/C below 125% in these data.

Test system: P388 leukemia ip, CD2F1 mice, survival T/C
Test: NCI In Vivo Anticancer Drug Screen. Data for tumor model P388 Leukemia (intraperitoneal) in CD2F1 (CDF1) mice
Details: endpoint: median survival time, higher = longer survival
Summary of the method: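 Mice carrying the transplanted tumor received test compound or vehicle. Survival was recorded in each group, and the value is the treated-group measurement divided by that of the vehicle-treated control group.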

[1] = dose: 50.0 mg/kg/injection, schedule: Q01DX009 (ip), vehicle: Klucel (hydroxypropylcellulose) (HPC)
[2] = dose: 100.0 mg/kg/injection, schedule: Q01DX009 (ip), vehicle: Klucel (hydroxypropylcellulose) (HPC)
[3] = dose: 200.0 mg/kg/injection, schedule: Q01DX009 (ip), vehicle: Klucel (hydroxypropylcellulose) (HPC)
[4] = dose: 50.0 mg/kg/injection, schedule: Q01DX005 (ip), vehicle: Klucel (hydroxypropylcellulose) (HPC)
[5] = dose: 100.0 mg/kg/injection, schedule: Q01DX005 (ip), vehicle: Klucel (hydroxypropylcellulose) (HPC)
[6] = dose: 25.0 mg/kg/injection, schedule: Q01DX009 (ip), vehicle: saline with Tween-80

Measured: T/C

CC(=O)[C@]1(O)Cc2c(O)c3c(c(O)c2[C@@H](OC2CC(N)C(O)C(C)O2)C1)C(=O)c1c(OCC(C)C)cccc1C3=O (stereo partly specified)
inactive: dose: 3.13 mg/kg/injection, schedule: Q04DX003 (ip), vehicle: water 107 % of control and 110 % of control | dose: 6.25 mg/kg/injection, schedule: Q04DX003 (ip), vehicle: water 105 % of control and 119 % of control | dose: 12.5 mg/kg/injection, schedule: Q04DX003 (ip), vehicle: water 101 % of control | dose: 25.0 mg/kg/injection, schedule: Q04DX003 (ip), vehicle: water 121 % of control | dose: 50.0 mg/kg/injection, schedule: Q04DX003 (ip), vehicle: water 101 % of control and 89 % of control

O=C1c2ccccc2C(=O)c2c(NCCN3CCNCC3)ccc(NCCN3CCNCC3)c21
inactive: dose: 4.0 mg/kg/injection, schedule: Q01DX009 (ip), vehicle: acid diluted with saline 103 % of control | dose: 8.0 mg/kg/injection, schedule: Q01DX009 (ip), vehicle: acid diluted with saline 109 % of control | dose: 12.5 mg/kg/injection, schedule: Q01DX009 (ip), vehicle: water 107 % of control | dose: 16.0 mg/kg/injection, schedule: Q01DX009 (ip), vehicle: acid diluted with saline 120 % of control | dose: 50.0 mg/kg/injection, schedule: Q01DX009 (ip), vehicle: water 123 % of control

CCOC(=O)C(Cl)(SC(Cl)(S(=O)(=O)c1ccccc1)S(=O)(=O)c1ccccc1)C(=O)OCC
inactive: [1] 102 % of control | [2] 99 % of control | [3] 97 % of control

COC1=C(OC)C(=O)C(C(=O)CCCCC(=O)O)=C(C)C1=O
inactive: dose: 60.0 mg/kg/injection, schedule: Q01DX005 (ip), vehicle: saline with Tween-80 107 % of control | dose: 120.0 mg/kg/injection, schedule: Q01DX005 (ip), vehicle: saline with Tween-80 101 % of control | dose: 240.0 mg/kg/injection, schedule: Q01DX005 (ip), vehicle: saline with Tween-80 107 % of control

O=c1[nH]c2ncccc2c(O)c1-c1ccccc1
inactive: dose: 50.0 mg/kg/injection, schedule: Q01DX009 (ip), vehicle: saline 107 % of control | dose: 100.0 mg/kg/injection, schedule: Q01DX009 (ip), vehicle: saline 96 % of control | dose: 200.0 mg/kg/injection, schedule: Q01DX009 (ip), vehicle: saline 96 % of control

CCOC(=O)c1cnc(-c2ccccc2)n(-c2ccccc2)c1=O
inactive: [4] 105 % of control | [5] 107 % of control

CN1C(=O)/C(=C2\SC(=O)N(CN3CCOCC3)C2=O)c2ccccc21
inactive: [4] 106 % of control | [5] 99 % of control | dose: 200.0 mg/kg/injection, schedule: Q01DX005 (ip), vehicle: Klucel (hydroxypropylcellulose) (HPC) 104 % of control

O=c1cccccc1[O][Sn]([O]c1cccccc1=O)([c]1ccccc1)[c]1ccccc1
inactive: dose: 50.0 mg/kg/injection, schedule: Q01DX001 (ip), vehicle: Klucel (hydroxypropylcellulose) (HPC) 104 % of control | dose: 100.0 mg/kg/injection, schedule: Q01DX001 (ip), vehicle: Klucel (hydroxypropylcellulose) (HPC) 116 % of control

CC1CN1P(=O)(N1CC2CCC(CC2)C1)N1CC1C (stereo unspecified)
inactive: dose: 6.25 mg/kg/injection, schedule: Q01DX009 (ip), vehicle: saline 109 % of control | dose: 12.5 mg/kg/injection, schedule: Q01DX009 (ip), vehicle: saline 95 % of control | dose: 25.0 mg/kg/injection, schedule: Q01DX009 (ip), vehicle: saline 104 % of control | dose: 100.0 mg/kg/injection, schedule: Q04DX003 (ip), vehicle: saline with Tween-80 122 % of control | dose: 200.0 mg/kg/injection, schedule: Q04DX003 (ip), vehicle: saline with Tween-80 90 % of control

O=C(Nc1ccc(Cl)cc1)c1cc2c(cc1O)[nH]c1ccccc12
inactive: dose: 50.0 mg/kg/injection, schedule: Q01DX005 (ip), vehicle: saline with Tween-80 92 % of control | dose: 100.0 mg/kg/injection, schedule: Q01DX005 (ip), vehicle: saline with Tween-80 96 % of control | dose: 200.0 mg/kg/injection, schedule: Q01DX005 (ip), vehicle: saline with Tween-80 98 % of control

O=C(Nc1ncn[nH]1)C(=O)Nc1ncn[nH]1
inactive: dose: 6.25 mg/kg/injection, schedule: Q01DX009 (ip), vehicle: saline with Tween-80 92 % of control | dose: 12.5 mg/kg/injection, schedule: Q01DX009 (ip), vehicle: saline with Tween-80 94 % of control | [6] 95 % of control

CCCCCCCCCC(C)(C)NP(=S)(OCC)OCC (tested in a mixture with another compound)
inactive: [1] 105 % of control | [2] 105 % of control | [3] 100 % of control

O=C(O)C1Cc2nc[nH]c2CN1CO (stereo unspecified)
inactive: [6] 100 % of control | dose: 50.0 mg/kg/injection, schedule: Q01DX009 (ip), vehicle: saline with Tween-80 109 % of control and 114 % of control | dose: 100.0 mg/kg/injection, schedule: Q01DX009 (ip), vehicle: saline with Tween-80 119 % of control and 120 % of control

N#CCCN1C(=O)C2(CCC#N)CCCCC2(O)N=C1c1ccccc1 (stereo unspecified)
inactive: dose: 60.0 mg/kg/injection, schedule: Q01DX005 (ip), vehicle: Klucel (hydroxypropylcellulose) (HPC) 92 % of control | dose: 120.0 mg/kg/injection, schedule: Q01DX005 (ip), vehicle: Klucel (hydroxypropylcellulose) (HPC) 94 % of control | dose: 240.0 mg/kg/injection, schedule: Q01DX005 (ip), vehicle: Klucel (hydroxypropylcellulose) (HPC) 92 % of control
